Measurements: patent US9815835B2, “Substituted polycyclic carbamolypyridone derivative” (priority 2009, dated 2017)

Key:
[1] = biological target: cap-dependent endonuclease (RNP fraction containing PB1•PB2•PA complex) (Influenza A virus, UniProt P15659); experiment: biochemical; conditions: RNP from A/WSN/33 virus, capped Cy3/BHQ2 30mer RNA substrate, 60 minutes at room temperature; read-out: CEN IC50
influenza virus = experiment: microbe, parasite or virus in culture; type: cell-based, influenza virus (MDBK or MDCK cells); conditions: unidentified influenza virus, 72 h, read-out: CPE EC50, effective concentration to achieve 50% CPE inhibition, 3 days incubation, WST-8

Structure (SMILES) | IC50 [1] [nM] | EC50 (influenza virus) [nM]
COCCCC1N(C(C)C)C(=O)c2c(O)c(=O)ccn2N1C1c2ccc(Cl)cc2CCc2cc(Cl)ccc21 (centres unmarked) [Example 524] | 57 | 26
CC(C)N1C(=O)c2c(O)c(=O)ccn2N(C2c3ccccc3CCc3ccccc32)C1c1ccc(Cl)cc1 (centres unmarked) [Example 527] | 127 | 88
CC(C)N1C(=O)c2c(O)c(=O)ccn2N(C2c3ccccc3CCc3ccccc32)C1CN (centres unmarked) [Example 532] | 98 | 75
CC(C)N1C(=O)c2c(O)c(=O)ccn2N(C2c3ccccc3CCc3ccccc32)C1CN(C)C (centres unmarked) [Example 536] | 71 | 27
COC(=O)NCC1N(C(C)C)C(=O)c2c(O)c(=O)ccn2N1C1c2ccccc2CCc2ccccc21 (centres unmarked) [Example 544] | 168 | 51
CSCC(=O)NCC1N(C(C)C)C(=O)c2c(O)c(=O)ccn2N1C1c2ccccc2CCc2ccccc21 (centres unmarked) [Example 546] | 202 | 124
CC(C)N1C(=O)c2c(O)c(=O)ccn2N(C2c3ccccc3CCc3ccccc32)C1CO (centres unmarked) [Example 547] | 32 | 27
CC(C)N1C(=O)c2c(O)c(=O)ccn2N(C2c3ccccc3CCc3ccccc32)C1CCO (centres unmarked) [Example 548] | 86 | 38
NCC1N(CCO)C(=O)c2c(O)c(=O)ccn2N1C1c2ccccc2CCc2ccccc21 (centres unmarked) [Example 549] | 76 | 2100
COCCC1N(CCO)C(=O)c2c(O)c(=O)ccn2N1C1c2ccccc2CCc2ccccc21 (centres unmarked) [Example 552] | 230 | 85
O=C1c2c(O)c(=O)ccn2N(C2c3ccccc3CCc3ccccc32)C(CO)N1CCO (centres unmarked) [Example 554] | 65 | 465
COC[C@H](C)N1C(=O)c2c(O)c(=O)ccn2N(C2c3ccccc3CCc3ccccc32)[C@@H]1CO [Example 555] | 23 | 12
COCCN1C[C@H](C(c2ccccc2)c2ccccc2)n2cc(C)c(=O)c(O)c2C1=O [Example 557] | 281 | 2470
CN1C[C@H](C2c3ccccc3CSc3ccccc32)n2cc(C(=O)O)c(=O)c(O)c2C1=O (some centres unmarked) [Example 560] | 27 | 173
CC(C)N1C[C@H](C2c3ccccc3CSc3ccccc32)n2ccc(=O)c(O)c2C1=O (some centres unmarked) [Example 561] | 73 | 8
CN1C[C@H](C2c3ccccc3CSc3ccccc32)n2ccc(=O)c(O)c2C1=O (some centres unmarked) [Example 562] | 22 | 62
O=C1NCC(C2c3ccccc3CCc3ccccc32)n2ccc(=O)c(O)c21 (centres unmarked) [Example 563] | 49 | 464
CN1CC(C2c3ccccc3CCc3ccccc32)n2ccc(=O)c(O)c2C1=O (centres unmarked) [Example 564] | 88 | 136
CN(C)CCN1CC(C2c3ccccc3CCc3ccccc32)n2ccc(=O)c(O)c2C1=O (centres unmarked) [Example 565] | 154 | 726
O=C1c2c(O)c(=O)ccn2C(C2c3ccccc3CCc3ccccc32)CN1c1ccccn1 (centres unmarked) [Example 569] | 138 | 1010
O=C1c2c(O)c(=O)ccn2C(C2c3ccccc3CCc3ccccc32)CN1c1cccnc1 (centres unmarked) [Example 570] | 81 | 2050
NN1CC(C2c3ccccc3CCc3ccccc32)n2ccc(=O)c(O)c2C1=O (centres unmarked) [Example 571] | 65 | 320
N#CCN1CC(C2c3ccccc3CCc3ccccc32)n2ccc(=O)c(O)c2C1=O (centres unmarked) [Example 573] | 55 | 158
N#CCN1C[C@H](C(c2ccccc2)c2ccccc2)n2ccc(=O)c(O)c2C1=O [Example 574] | 165 | 442
CC(C#N)N1CC(C2c3ccccc3CCc3ccccc32)n2ccc(=O)c(O)c2C1=O (centres unmarked) [Example 575] | 58 | 87
CC(C)N1C[C@H](C2c3ccccc3CCc3ccccc32)n2ccc(=O)c(O)c2C1=O [Example 576] | 63 | 27
COCCN1CN(C(c2ccccc2)c2ccccc2)n2c(CC#N)cc(=O)c(O)c2C1=O [Example 577] | 233 | 337
CC(C)N1CN(C(c2ccccc2)c2ccccc2)n2c(N)cc(=O)c(O)c2C1=O [Example 581] | 83 | 480
